Data reported in article PMC9399069, “Imaging PARP with [^18F]rucaparib in pancreatic cancer models” (European Journal of Nuclear Medicine and Molecular Imaging, 2022).

How the values were obtained:
PSN1 cells [1] = assay: Protein expression by flow cytometry after PARP inhibitors or DNA-damaging reagents, PSN1 cells; assay type: cell-based, human; conditions: 3 h; for γH2AX expression / Upregulation of PARP proteins: 100 μM
Procedure: (§1) Relative expression of PARP1, 2 and 3, ALDH2 and IMPDH2 was determined by flow cytometry. Cells (1 × 10^6 cells/well) were seeded in 96-well plates in growth medium, washed with FACS buffer (PBS, 2% FBS, 1 mM EDTA, 0.1% NaN3) and centrifuged at 500×g for 5 min. Immunostaining was performed using the Foxp3/transcription factor staining buffer set (eBioscience^TM, USA). Intracellular staining was conducted in permeabilisation buffer for 30 min at 4 °C in the dark using the following antibodies: AF488-conjugated anti-PARP-1 (1:100; sc-80070), AF594-conjugated anti-PARP-2 (1:100; sc-393310), anti-PARP-3 (1:100; sc-390771) or anti-PARP-tankyrase-1/2 (1:100; sc-365897) from Santa Cruz Biotechnology Inc. (USA), AF488-conjugated anti-IMPDH2 (1:500; ab-200770) from Abcam plc. (UK) and AF488-conjugated anti-ALDH2 (1:100, ABIN6817568) from Antibodies-online GmbH (UK). Fixable viability dye ef780 (1:4000; eBioscience^TM; 65-0865-14) was used for live and dead cells discrimination. Fixation of immunostained cells was performed for 15 min at room temperature. Flow cytometry was conducted on the CytoFLEX benchtop flow cytometer (Beckman Coulter, USA), with appropriate lasers and filters, positive and negative controls. Data were analysed using FlowJo^TM (Tree Star Inc., BD Biosciences, USA).
(§2) AsPC1 (1 × 10^5 cells/well) and PSN1 cells (7.5 × 10^4 cells/well) were exposed to methyl methanesulfonate (MMS) or temozolomide (TMZ) (100 μM, in a total of 270 μL growth medium) for 3 h at 37 °C. Additionally, [^18F]rucaparib (500 kBq, 3.6 GBq/μmol; [^TotalF]rucaparib final concentration: 301 nM) or [^18F]olaparib (400 kBq, 8.5 GBq/μmol; [^TotalF]olaparib final concentration: 300 nM) was added, and the cells were incubated at 37 °C for 30 min. Cell culture medium was removed, and cells were washed with PBS. For cell retention, fresh medium (300 μL) was added to the cells. Cells were then further incubated at 37°C for 3 h. Cell culture medium was removed, and the amount of ^18F in the cell lysates was measured as above. Protein expression of the cells after DNA-damaging treatments (or PARP inhibitors 10 μM) was performed using flow cytometry as above.

PSN1 cells [2] = assay: Uptake and retention of radiolabelled PARP inhibitors in PSN1 cells treated with DNA-damaging reagents; assay type: cell-based, human; conditions: 100 μM, 3 h, retention at 3 h
Procedure: as §2

AsPC1 cells [3] = assay: Uptake and retention of radiolabelled PARP inhibitors in AsPC1 cells treated with DNA-damaging reagents; assay type: cell-based, human; conditions: 100 μM, 3 h, retention at 3 h
Procedure: as §2

AsPC1 cells [4] = assay: Protein expression by flow cytometry after PARP inhibitors or DNA-damaging reagents, AsPC1 cells; assay type: cell-based, human; conditions: 3 h; for Upregulation of PARP proteins / γH2AX expression: 100 μM; for γH2AX expression: not statistically significant in AsPC1 cells
Procedure: as §1, §2

breast cancer xenografts = test system: breast cancer xenografts; design: method as in PMID 27841728, PMID 27069769; conditions: 1 h post-injection; cited from earlier work
[5] = design: method as in PMID 25895168, PMID 26337803, PMID 27689533; conditions: relatively low tumour uptake; cited from earlier work
PSN1 xenografts [6] = test system: PSN1 xenografts; design: method as in PMID 30389822; conditions: cited from earlier work
AsPC1 cells [7] = assay: Cell retention of [18F]rucaparib and [18F]olaparib in AsPC1 cells; assay type: cell-based, human; conditions: for Efflux: fraction exiting cells: in the first 10–30 min, biphasic efflux
Procedure: (§3) AsPC1 (1 × 10^5 cells/well) and PSN1 cells (7.5 × 10^4 cells/well) were exposed to [^18F]rucaparib (100 kBq, 4.8 GBq/μmol; [^TotalF]rucaparib final concentration: 258 nM) or [^18F]olaparib (400 kBq, 2.8 GBq/μmol: [^TotalF]olaparib final concentration: 242 nM) in 24-well plates at 37 °C for 30 min. Cell culture medium was removed, and cells were washed with PBS, followed by the addition of fresh medium (300 μL). Cells were then further incubated at 37 °C. Cell culture medium was removed, and cells were washed with PBS at different times (0–3 h). Cells were lysed using RIPA buffer for 15 min at room temperature, and the amount of ^18F in the cell lysates was measured as above.

PSN1 xenografts [8] = assay: Autoradiography of PSN1 tumour sections; assay type: in vivo, Balb/c nu/nu mice; conditions: unlabelled drug 0.5 mg co-administered
Procedure: Ex vivo localisation of [^18F]rucaparib in PSN1 xenografts was determined using autoradiography of tumour sections (10 μm). Uptake in the same tumour sections was compared to immunohistochemistry staining for PARP1, 2 and 3. Full details of procedures and protocols are provided in Supplemental Information.
PSN1 xenograft tissues were harvested and immediately flash-frozen using liquid nitrogen, and sectioned (10 µm) using a Leica CM1950 cryostat. Tissue sections were thaw-mounted onto Superfrost PLUS glass microscope slides (Menzel-Glaser, Thermo Scientific) and allowed to dry briefly at room temperature (RT). The slides were then fixed in 10% neutral buffered formalin […] (NBF) for 10 min at RT, dried, and exposed to a storage phosphor screen (PerkinElmer, Super Resolution, 12.5 x 25.2 cm) in a standard X-ray cassette for 15 h at 4 °C. The phosphor screen was then imaged using a Cyclone® Plus Storage Phosphor System (PerkinElmer).

PSN1 cells [9] = assay: Cell retention of [18F]rucaparib and [18F]olaparib in PSN1 cells; assay type: cell-based, human; conditions: for Efflux: fraction exiting cells: in the first 10–30 min, biphasic efflux
Procedure: as §3

[10] = design: method as in PMID 24216281, PMID 26438157; conditions: 10 mg/kg, administered orally or intraperitoneally; cited from earlier work
SW620 cells = test system: SW620 cells; design: method as in PMID 24556618; conditions: cited from earlier work
pancreatic cancer = conditions: phase II, pancreatic cancer patients with BRCA1/2 and PALB2 variants; cited from earlier work

Question: For COS(C)(=O)=O [MMS, methyl methanesulfonate], which γH2AX expression (PSN1 cells [1]) is on record?
Answer: The γH2AX expression was “increasing trend”.

Question: And the “Upregulation of PARP proteins” value (PSN1 cells [1]; flow cytometry)?
Answer: Its value is under 10%.

Question: And the “Cell association and retention of [TotalF]rucaparib and [TotalF]olaparib after exposure to DNA-damaging reagent” value (shortened to “Cell association and retention”) (PSN1 cells [2])?
Answer: The value was “increased”.

Question: What about the “Cell association and retention” value (AsPC1 cells [3]) of the same molecule?
Answer: The value was “increased”.

Question: What about the “Upregulation of PARP proteins” value (AsPC1 cells [4]; flow cytometry) of the same molecule?
Answer: Its value is under 10%.

Question: What about the γH2AX expression (AsPC1 cells [4]) of the same molecule?
Answer: The γH2AX expression was “increasing trend”.

Question: With Cn1nnc2c(C(N)=O)ncn2c1=O [TMZ, temozolomide] as the molecule, how does the γH2AX expression (PSN1 cells [1]) read?
Answer: The γH2AX expression was “increasing trend”.

Question: What about the “Upregulation of PARP proteins” value (PSN1 cells [1]; flow cytometry) of the same molecule?
Answer: Its value is under 10%.

Question: And the “Cell association and retention” value (PSN1 cells [2])?
Answer: The value was “increased”.

Question: What about the “Cell association and retention” value (AsPC1 cells [3]) of the same molecule?
Answer: Its value is “increased”.

Question: What about the “Upregulation of PARP proteins” value (AsPC1 cells [4]; flow cytometry) of the same molecule?
Answer: The value was under 10%.

Question: And the γH2AX expression (AsPC1 cells [4])?
Answer: Its γH2AX expression is “increasing trend”.

Question: With O=C1NCCn2c(-c3ccc(OCC[18F])cc3)nc3cccc1c32 [[^18F]FTT] as the molecule, how does the “Tumour-to-muscle (T/M) ratio” value (breast cancer xenografts) read?
Answer: Its value is 1.2–1.9.

Question: With CC1=CC(C)=[N+]2C1=Cc1ccc(CCC(=O)N3CCN(C(=O)c4cc(Cc5n[nH]c(=O)c6ccccc56)ccc4F)CC3)n1[B-]2(F)[18F] (centres unmarked) [[^18F]PARPi-FL] as the molecule, how does the Tumour uptake [5] read?
Answer: The Tumour uptake was under 1 %ID/g.

Question: For O=C(c1cc(Cc2n[nH]c(=O)c3ccccc23)ccc1[18F])N1CCN(C(=O)C2CC2)CC1 [[^18F]olaparib], which Tumour uptake (PSN1 xenografts [6]; PSN1 xenografts, 1 h post-injection) is on record?
Answer: The Tumour uptake was 3.16 ± 0.36 %ID/g.

Question: What about the Weighted blood half-life (PSN1 xenografts [6]; same xenograft mice) of the same molecule?
Answer: The Weighted blood half-life was 32.3 min.

Question: For O=C(c1cc(Cc2n[nH]c(=O)c3ccccc23)ccc1F)N1CCN(C(=O)C2CC2)CC1 [olaparib], which “Efflux: fraction exiting cells” value (AsPC1 cells [7]) is on record?
Answer: The value was “more than 50%”.

Question: What about the “18F signal of [18F]rucaparib in tumour sections from treated tumours” value (PSN1 xenografts [8]) of the same molecule?
Answer: Its value is “significantly reduced”.

Question: What about the “Efflux: fraction exiting cells” value (PSN1 cells [9]) of the same molecule?
Answer: The value was “more than 50%”.

Question: With CNCc1ccc(-c2[nH]c3cc(F)cc4c3c2CCNC4=O)cc1 [rucaparib] as the molecule, how does the Blood half-life [10] read?
Answer: The Blood half-life was 84 to 90 min.

Question: What about the “PARP1 expression (MFI) after exposure of PARP inhibitors” value (PSN1 cells [1]; 10 μM, flow cytometry) of the same molecule?
Answer: Its value is “upregulated”.

Question: What about the “Weighted cellular efflux half-life” value (AsPC1 cells [7]) of the same molecule?
Answer: The value was 49.9 ± 6.8 min.

Question: And the “Efflux: fraction exiting cells” value (AsPC1 cells [7])?
Answer: Its value is “more than 50%”.

Question: What about the Cellular efflux half-life (SW620 cells) of the same molecule?
Answer: The Cellular efflux half-life was 20 min.

Question: And the “18F signal of [18F]rucaparib in tumour sections from treated tumours” value (PSN1 xenografts [8])?
Answer: The value was “significantly reduced”.

Question: And the “Weighted cellular efflux half-life” value (PSN1 cells [9])?
Answer: Its value is 43.9 ± 3.2 min.

Question: What about the “Efflux: fraction exiting cells” value (PSN1 cells [9]) of the same molecule?
Answer: The value was “more than 50%”.

Question: And the “PARP1 expression (MFI) after exposure of PARP inhibitors” value (AsPC1 cells [4]; 10 μM, flow cytometry)?
Answer: Its value is “upregulated”.

Question: And the “Fraction of patients who benefited from treatment” value (pancreatic cancer)?
Answer: Its value is “two-thirds”.
